Here are results for one compound from patent US6319910A, “Method for inhibiting cyclooxygenase-2 and tumor necrosis factor alpha” (Hospital for Joint Diseases, priority 1998, dated 2001).

“Also recorded” adds a separate entry of the source. Like-named read-outs stand apart in the source and are kept apart here.

One experiment has as its system TNFα. Put plainly: TNFα release in the medium by HEK 293 cells permanently transfected with human proTNFα (ELISA). Format: cell-based. Conditions: FIG. 8; 16 hours; words. Here is the method:
HEK 293 cells were transfected with the proTNFα cDNA (wild) to prepare a stable cell line. […] A mutant form of proTNFα cDNA which could not be cleaved by the endogenous TNFα convertase (TACE) to release soluble TNFα was also transfected in separate human HEK 293 cells. The soluble TNFα was estimated by ELISA from the wild type and mutant transfected cells from the medium (FIG. 6).
HEK 293 cells were grown as previously described by American Type Culture Collection (ATCC). […] The HEK 293 cells were incubated with CMT-3 to examine the effects of CMT-3 on TNFα release in the medium.
HEK 293 cells were grown under the conditions previously described by ATCC. Various compounds, including CMT-3 and doxycycline/minocyclines were incubated with proTNFα transfected HEK 293 cells releasing TNFα in the medium at 16 hours. […] Soluble TNFα was estimated by ELISA from the medium.
Background: ELISA stands for enzyme-linked immunosorbent assay.

Experiment [1] concerns RAW 264.7 cells. The experiment in a line: Nitrite (NO) production/accumulation in LPS-stimulated RAW 264.7 cells. It counts as cell-based, murine. As to conditions: LPS 100 ng/ml, minocycline 40 μg/ml, 16 hours; for inhibition at 40 µg/mL: Mus musculus, RAW264.7, 16 h. Here is the method:
(§1) Murine macrophages (RAW 263.7 cells) which were grown in Dulbecco's modified eagle medium (DMEM) containing 10% fetal bovine serum, 2 mM glutamine, 50 U/ml penicillin and 50 μg/ml streptomycin, were stimulated with 100 ng/ml LPS to induce both NOS and COX-2 at 16 hr. […] The data presented in FIG. 1 represents mean±SD as examined by T test were n=3.
(§2) The effects of CMTs 1, 2, 3, 5 and 8 on PGE2 and NO accumulation in RAW 264.7 cells were further evaluated as described above for CMT-3. […]

Experiment [2] concerns RAW 264.7 cells. Put plainly: PGE2 production/accumulation in LPS-stimulated RAW 264.7 cells. Format: cell-based, murine. Conditions: LPS 100 ng/ml, minocycline 40 μg/ml; for PGE2 accumulation: 16 hours; for activation at 40 µg/mL: Mus musculus, RAW264.7, 16 h, printed in parentheses = increase. Here is the method: as §1, §2
The next experiment relates to arthritis. Conditions: mild and moderate arthritis; Tilley et al, 1995; words; cited from earlier work.
Experiment [3] relates to OA-affected cartilage. Put plainly: Spontaneous PGE2 release by OA-affected cartilage (ex vivo organ culture). Format: cell-based, human. As to conditions: for Effect on PGE2 production: human OA-affected cartilage, words. Here is the method: (§3) Human osteoarthritis affected cartilage spontaneously release nitric oxide (NO) and PGE2 in the medium as previously reported (Amin et al, 1995a; 1997a). The OA-organ cultures were set up as described (Amin et al, 1995a; 1997a). Briefly, total knee articular cartilage from tibial plateau and femoral condyle were harvested from OA-affected patients. The cartilage was mixed and cut into 3-mm discs and 4-6 discs were placed in triplicate or quadruplicate, in a 24-well plate in 2.0 ml of Ham's F-12 medium supplemented with 0.2% endotoxin free human albumin, 10 mM Hepes pH 7.4 and antibiotics in the presence of various modulators, as previously described (Amin et al, 1995a; 1997a). CMT-8 was used at pharmacologically relevant concentrations in DMSO (<0.01% final concentration) as carrier. An equivalent amount of DMSO was also added in the control cultures.
(§4) The p value between control and CMT-8 treated values for PGE2≤0.1 (insignificant) whereas the p values between NMMA treated cartilage and CMT-8 treated cartilage was ≤0.001 (significant). The data are represented as mean±SD as examined by T test when n=3. Data represent±SD value as determined by Student's t test n=4. The P values described are compared with control unstimulated OA-cartilage. The data represents one of the two similar experiments. P values for PGE2 and Nitrite=^a≤0.5; ^b≤0.1; ^c≤0.05; ^d≤0.01.

In experiment [4] the test system is OA-affected cartilage. The experiment in a line: Spontaneous nitrite/nitric oxide release by OA-affected cartilage (ex vivo organ culture). It counts as cell-based, human. Here is the method:
as §3, §4

The test system of a further experiment is COX-2. The experiment in a line: COX-2 expression in cells/cartilage (general statement). It counts as cell-based. As to conditions: words.

Usually inhibition stands for the percentage by which the read-out fell short of the control. For the compound `CN(C)c1ccc(O)c2c1C[C@H]1C[C@H]3[C@H](N(C)C)C(O)=C(C(N)=O)C(=O)[C@@]3(O)C(O)=C1C2=O` [Minocycline, minocycline, reference compound], the “Effect on spontaneous TNFα release” value in the experiment with TNFα is given as “inhibit TNFα release”. The Nitrite is 4.8 µM in the experiment on RAW 264.7 cells [1] (Experiment I); 12.9 µM in the experiment with RAW 264.7 cells [1] (Experiment II); 66.0 ± 17.0 µM with OA-affected cartilage [4] (Table 2, minocycline 10 μg/ml). In addition, the inhibition at 40 µg/mL in the experiment with RAW 264.7 cells [1] (read-out: Nitrite % Inhibition, Experiment I) turned out to be 90%; in the experiment with RAW 264.7 cells [1] (read-out: Nitrite % Inhibition, Experiment II), 41%. In addition, the PGE2 accumulation worked out at 43.7 ± 8.6 ng/mL with RAW 264.7 cells [2] (Experiment I) and 49.1 ± 10.0 ng/mL in the experiment on RAW 264.7 cells [2] (Experiment II). Besides, the activation at 40 µg/mL was 172% in the experiment with RAW 264.7 cells [2] (read-out: PGE2 % (Increase), Experiment I) and 257% in the experiment on RAW 264.7 cells [2] (read-out: PGE2 % (Increase), Experiment II). Also, the “Safety and efficacy in arthritis” value with arthritis is “safe and effective for patients with mild and moderate arthritis”. The PGE2 in the experiment on OA-affected cartilage [3] (Table 2, minocycline 10 μg/ml) stood at 314.6 ± 58.4 ng/mL. The “Effect on PGE2 production” value in the experiment with OA-affected cartilage [3] is “stimulates PGE2 production”; with OA-affected cartilage [3] (listed as minocycline) it was “up-regulate COX-2 expression and PGE2 production”. This compound registered an inhibition at 10 µg/mL in the experiment with OA-affected cartilage [4] (Homo sapiens, Table 2, minocycline 10 μg/ml) of 30%. Besides, the “Effect on NO production” value in the experiment on OA-affected cartilage [4] (human OA-affected cartilage, words, listed as minocycline) was “suppresses NO production; also recorded: inhibit NO production”. Moreover, in the experiment with COX-2, the “Effect on COX-2 expression” value was “up-regulate COX-2 expression and PGE2 production”.
